{
  "source": "patent US9087996B2",
  "about": "“Fluorine-containing aromatic compound and production method thereof” (Asahi Glass Company, Limited, priority 2012, dated 2015)",
  "key": {"[1]": {"format": "physicochemical", "experimental": "In order to investigate applicability of the compound (o) obtained in Example 7-c to a wet process, a solubility test of the compound in various solvents was conducted. In addition, a solubility test of pentacene was also conducted as reference.\nSpecifically, 20 mg of a sample was weighed and it was visually judged whether it dissolves in 10 g of a solvent at room temperature (0.2% by weight)."}},
  "data": [
    {"smiles": "c1ccc2cc3cc4cc5ccccc5cc4cc3cc2c1", "note": "[Pentacene, pentacene, reference compound]", "values": [
      {"measurement": "Solubility in Chloroform", "setting": "[1]", "value": "No"},
      {"measurement": "Solubility in Cyclohexane", "setting": "[1]", "value": "No"},
      {"measurement": "Solubility in Hexane", "setting": "[1]", "value": "No"},
      {"measurement": "Solubility in THF", "setting": "[1]", "value": "No"},
      {"measurement": "Solubility in Toluene", "setting": "[1]", "value": "No"},
      {"measurement": "Solubility in o-Dichlorobenzene", "setting": "[1]", "value": "No"}
    ]},
    {"smiles": "FC(F)(F)c1c2ccc(C#Cc3ccccc3)cc2c(C(F)(F)F)c2ccc(C#Cc3ccccc3)cc12", "note": "[Compound (b1), 2,6-bis(phenylethynyl)-9,10-bis(trifluoromethyl)anthracene]", "values": [
      {"measurement": "melting point", "value": "215 to 215.5", "unit": "°C"}
    ]},
    {"smiles": "COc1ccc(C#Cc2ccc3c(C(F)(F)F)c4ccccc4c(C(F)(F)F)c3c2)cc1", "note": "[Compound (a1), 2-[(4-methoxyphenyl)ethynyl]-9,10-bis(trifluoromethyl)anthracene]", "values": [
      {"measurement": "melting point", "value": "123.5 to 124.1", "unit": "°C"}
    ]},
    {"smiles": "FC(F)(F)c1c2cc3ccccc3cc2c(C(F)(F)F)c2cc3ccccc3cc12", "note": "[Compound (o)]", "values": [
      {"measurement": "Solubility in Chloroform", "setting": "[1]", "value": "Yes"},
      {"measurement": "Solubility in Cyclohexane", "setting": "[1]", "value": "Yes"},
      {"measurement": "Solubility in Hexane", "setting": "[1]", "value": "Yes"},
      {"measurement": "Solubility in THF", "setting": "[1]", "value": "Yes"},
      {"measurement": "Solubility in Toluene", "setting": "[1]", "value": "Yes"},
      {"measurement": "Solubility in o-Dichlorobenzene", "setting": "[1]", "value": "Yes"}
    ]}
  ]
}
